Target mRNA inhibition data for 54 sequences are collected here from the OligoGym collection.

“And” between values parts separate entries of the source, which are not always exact repeats. Equal entries are not always repeated. After the bases stand the sugars from the 5' end (letter, count) and the backbone: PS all phosphorothioate, else s phosphorothioate and o phosphodiester by linkage. Methylation of C is not given here. e = 2'-O-(2-methoxyethyl) (MOE); k = constrained ethyl (cEt); d = 2'-deoxy (DNA)

The series has as its target SOD1. The settings on record: ASO.

In the case of “GGCGATCCCAATTACACCAC (sugars e6 d8 e6, linkages s1 o3 s10 o3 s2)”, the target mRNA inhibition (A431, 0.062 µM) was determined as 7%; the target mRNA inhibition (A431, 0.185 µM) was determined as 0%; the target mRNA inhibition (A431, 0.556 µM) worked out at 0%; the target mRNA inhibition (A431, 1.667 µM) amounted to 23%; the target mRNA inhibition (A431, 5 µM) is 14%; the target mRNA inhibition (A431, 15 µM) was 6%. For the same sequence, the target mRNA inhibition is, setting by setting: (SH-SY5Y, 0.062 µM) 0%; (SH-SY5Y, 0.185 µM) 0%; (SH-SY5Y, 0.556 µM) 8%; (SH-SY5Y, 1.667 µM) 23%; (SH-SY5Y, 5 µM) 49%; (SH-SY5Y, 15 µM) 66%.

For the sequence “TGGCAAAATACAGGTCA (sugars e3 k2 d7 k2 e3, PS)”, the target mRNA inhibition (HepG2, 3 µM) came to 26%.

Under “HepG2, 5 µM”, “GCCATACAGGGTTTTTA (sugars e2 k2 d9 k2 e2, PS)” displayed a target mRNA inhibition of 26%.

“GCTTGAATGACAAAGAA (sugars e2 k2 d8 k2 e3, PS)”: the target mRNA inhibition (HepG2, 5 µM) came out at 24%.

As for “CCCAATTACACCACAAG (sugars e2 k2 d8 k2 e3, PS)”, the target mRNA inhibition (HepG2, 4 µM) was 63%.

“CTGGTCCATTACTTTCCTTC (sugars e5 d10 e5, PS)”: where the note is “HepG2, 3 µM”, the target mRNA inhibition was 50%.

Consider “CACCACAAGCCAAACGA (sugars e2 k2 d8 k2 e3, PS)”, for which, under “HepG2, 4 µM”, the target mRNA inhibition was 48%.

On to “AGACATTTTAACTGAGT (sugars e2 k2 d8 k2 e3, PS)”, for which, where the note is “HepG2, 5 µM”, the target mRNA inhibition came to 46%.

“TCTGGATAGAGGATTAA (sugars e3 k2 d7 k2 e3, PS)”: the target mRNA inhibition (HepG2, 3 µM) turned out to be 25%.

Turning to “TCACTGGTCCATTACTT (sugars e3 k2 d7 k2 e3, PS)”, the target mRNA inhibition (HepG2, 3 µM) was 15%.

The sequence “CTTCAGCACGCACACGGCCT (sugars e5 d10 e5, PS)” came in with a target mRNA inhibition (HepG2, 0.1875 µM) of 13%; a target mRNA inhibition (HepG2, 0.75 µM) of 23%; a target mRNA inhibition (HepG2, 3 µM) of 48%; a target mRNA inhibition (HepG2, 4 µM) of 57%; a target mRNA inhibition (HepG2, 12 µM) of 77%.

Where the note is “HepG2, 4 µM”, “CCAAGGGAATGTTTATT (sugars e2 k2 d8 k2 e3, PS)” displayed a target mRNA inhibition of 57%.

For the setting “HepG2, 3 µM”, “AAGTTTAATACCCATCT (sugars e3 k2 d7 k2 e3, PS)” displayed a target mRNA inhibition of 12%.

For the sequence “TGCCTCTCTTCATCCTTTGG (sugars e5 d10 e5, PS)”, under “HepG2, 3 µM”, the target mRNA inhibition was 32%.

For the setting “HepG2, 4 µM”, “TTGGGCGATCCCAATTA (sugars e2 k2 d8 k2 e3, PS)” displayed a target mRNA inhibition of 14%.

Sequence “ATGCAGGCCTTCAGTCA (sugars e3 k2 d7 k2 e3, PS)” yielded a target mRNA inhibition (HepG2, 3 µM) of 37%.

On to “AGTGCCATACAGGGTTT (sugars e2 k2 d8 k2 e3, PS)”, for which, where the note is “HepG2, 5 µM”, the target mRNA inhibition turned out to be 20%.

As to “GGCTTGAATGACAAAGA (sugars e2 k2 d8 k2 e3, PS)”, the target mRNA inhibition (HepG2, 5 µM) worked out at 54%.

For the sequence “CAAGCCAAACGACTTCCAGC (sugars e5 d10 e5, PS)”, the target mRNA inhibition reads like this: (HepG2, 0.1875 µM) 9%; (HepG2, 0.75 µM) 27%; (HepG2, 3 µM) 59%; (HepG2, 5 µM) 54%; (HepG2, 12 µM) 89%.

Under “HepG2, 3 µM”, “CCTTCTGCTCGAAATTG (sugars e3 k2 d7 k2 e3, PS)” showed a target mRNA inhibition of 16%.

In turn, “TTCTTTTAATAGCCTCATAA (sugars e5 d10 e5, PS)” came in with a target mRNA inhibition (HepG2, 5 µM) of 5%.

Under “HepG2, 5 µM”, “CAAAGAAATTCTGACAAGTT (sugars e5 d10 e5, PS)” displayed a target mRNA inhibition of 7%.

For the setting “HepG2, 3 µM”, “CTTCAATAGACACATCG (sugars e3 k2 d7 k2 e3, PS)” returned a target mRNA inhibition of 9%.

Take “GAATCCATGCAGGCCTT (sugars e3 k2 d7 k2 e3, PS)”: under “HepG2, 3 µM”, the target mRNA inhibition amounted to 9%.

In the case of “GTCATCTGCTTTTTCAT (sugars e3 k2 d7 k2 e3, PS)”, the target mRNA inhibition (HepG2, 3 µM) worked out at 74%.

On to “AGTGATCATAAATCAGT (sugars e2 k2 d8 k2 e3, PS)”, for which, where the note is “HepG2, 5 µM”, the target mRNA inhibition stood at 23%.

“TTTATTCACAGGCTTGA (sugars e3 k2 d7 k2 e3, PS)” gave a target mRNA inhibition (HepG2, 3 µM) of 29%.

Sequence “AAGAAATTCTGACAAGT (sugars e3 k2 d7 k2 e3, PS)” showed a target mRNA inhibition (HepG2, 3 µM) of 18%.

For the setting “HepG2, 5 µM”, “ACCAGTGTGCGGCCAATGAT (sugars e5 d10 e5, PS)” displayed a target mRNA inhibition of 0%.

Sequence “TCACAGGCTTGAATGAC (sugars e2 k2 d9 k2 e2, PS)” had a target mRNA inhibition (HepG2, 5 µM) of 46%.

“GTCAGTCCTTTAATGCTTCC (sugars e5 d10 e5, PS)” yielded a target mRNA inhibition (HepG2, 5 µM) of 34%.

“AGGATACATTTCTACAG (sugars e2 k2 d9 k2 e2, PS)”: the target mRNA inhibition by setting is: (HepG2, 0.1875 µM) 9%; (HepG2, 0.75 µM) 52%; (HepG2, 3 µM) 81%; (HepG2, 4 µM) 77%; (HepG2, 12 µM) 95%.

Take “CTTTGCCCAAGTCATCTGCT (sugars e5 d10 e5, PS)”: the target mRNA inhibition came out at 56% (HepG2, 4 µM) and 86% (HepG2, 12 µM).

“TCAGACTACATCCAAGG (sugars e2 k2 d9 k2 e2, PS)” yielded a target mRNA inhibition (HepG2, 0.1875 µM) of 0%; a target mRNA inhibition (HepG2, 0.75 µM) of 47%; a target mRNA inhibition (HepG2, 3 µM) of 75%; a target mRNA inhibition (HepG2, 4 µM) of 78%; a target mRNA inhibition (HepG2, 12 µM) of 90%.

As for “ATCAGTTTCTCACTACAGGT (sugars e5 d10 e5, PS)”, the target mRNA inhibition (HepG2, 5 µM) is 22%.

Under “HepG2, 3 µM”, “TCGCCCTTCAGCACGCA (sugars e3 k2 d7 k2 e3, PS)” had a target mRNA inhibition of 31%.

“CCATGCAGGCCTTCAGT (sugars e3 k2 d7 k2 e3, PS)” yielded a target mRNA inhibition (HepG2, 3 µM) of 21%.

Consider “ACTGGTACAGCCTGCTGTAT (sugars e5 d10 e5, PS)”, for which, where the note is “HepG2, 5 µM”, the target mRNA inhibition is 22% and 28%.

For the setting “HepG2, 5 µM”, “AATAAGTGCCATACAGG (sugars e2 k2 d9 k2 e2, PS)” gave a target mRNA inhibition of 36%.

“CTTCTGCTCGAAATTGATGA (sugars e5 d10 e5, PS)”: under “HepG2, 4 µM”, the target mRNA inhibition was 11%.

Turning to “ATGGAATCCATGCAGGC (sugars e3 k2 d7 k2 e3, PS)”, under “HepG2, 3 µM”, the target mRNA inhibition came to 9%.

In the case of “CATACAGGGTTTTTATT (sugars e3 k2 d7 k2 e3, PS)”, where the note is “HepG2, 3 µM”, the target mRNA inhibition was 0%.

Regarding “CCAATTACACCACAAGC (sugars e3 k2 d7 k2 e3, PS)”, the target mRNA inhibition (HepG2, 3 µM) is 29%.

On to “CATCCTTTGGCCCACCG (sugars e3 k2 d7 k2 e3, PS)”, for which the target mRNA inhibition (HepG2, 3 µM) came out at 38%.

Sequence “AATTCTGACAAGTTTAA (sugars e3 k2 d7 k2 e3, PS)” came in with a target mRNA inhibition (HepG2, 3 µM) of 15%.

Turning to “CATTGCCCAAGTCTCCAACA (sugars e5 d10 e5, PS)”, under “HepG2, 5 µM”, the target mRNA inhibition is 39% and 25%.

As for “GGCCTTCAGTCAGTCCTTTA (sugars e5 d10 e5, PS)”, the target mRNA inhibition (HepG2, 5 µM) was 41% and 39%.

For “CTACATCCAAGGGAATG (sugars e3 k2 d7 k2 e3, PS)”, for the setting “HepG2, 3 µM”, the target mRNA inhibition is 40%.

The sequence “GCTTTTTCATGGACCAC (sugars e3 k2 d7 k2 e3, PS)” returned a target mRNA inhibition (HepG2, 3 µM) of 71%.

Turning to “ACTCATGAACATGGAATCCA (sugars e5 d10 e5, PS)”, under “HepG2, 5 µM”, the target mRNA inhibition is 27% and 20%.

For the sequence “GCCTCATAATAAGTGCC (sugars e2 k2 d8 k2 e3, PS)”, the target mRNA inhibition (HepG2, 5 µM) was 41%.

The sequence “GATTTAAGTCTGGCAAA (sugars e2 k2 d8 k2 e3, PS)” returned a target mRNA inhibition (HepG2, 5 µM) of 19%.

In turn, “GTTTCTCACTACAGGTA (sugars e2 k2 d9 k2 e2, PS)” returned a target mRNA inhibition (HepG2, 5 µM) of 38%.

Consider “ATAACTCGCTAGGCCACGCC (sugars e5 d10 e5, PS)”, for which the target mRNA inhibition (HepG2, 4 µM) stood at 12%.
